Measurements from patent US8160709B2, “Use of electrical stimulation of the lower esophageal sphincter to modulate lower esophageal sphincter pressure” (Endostim, Inc., priority 2006, dated 2012).
“Also recorded” adds a separate entry of the source. Marks after values point to notes of the source that are not given here.

Tested on: lower esophageal sphincter
Assay: Lower esophageal sphincter pressure recording during NGES in anesthetized dogs, after L-NAME and atropine
Format: in vivo
Experimental: All recordings were performed one hour after consumption of three ounces of canned dog food to prevent fluctuations in lower esophageal sphincter pressure, and under mild sedation (acepromazine 0.5 mg/kg). During electrical stimulation days, tests consisted of three periods of 20 minutes each: […] Electrical stimulation was delivered using an external pulse generator. […] Area under the curve (“AUC”) and pressure were compared among the three periods. Data are shown as mean±SD, ANOVA and t-test, p<0.05. Three female mongrel dogs underwent continuous recording of lower esophageal sphincter pressure under anesthesia. NGES was delivered to the lower esophageal sphincter for 10 minutes at: […] Changes in lower esophageal sphincter pressure during NGES are presented as percent change from preceding baseline. Results (FIG. 6) are presented as mean±SD.

[1] = in words, anesthetized dogs, L-NAME 50 mg/kg, atropine 0.05 mg/kg in presence of L-NAME
[2] = in words, anesthetized dogs, L-NAME 50 mg/kg, atropine 0.05 mg/kg in presence of L-NAME, listed as atropine
[3] = LES pressure during NGES, percent change from preceding baseline, L-NAME 50 mg/kg, atropine 0.05 mg/kg in presence of L-NAME, mean (SD)
[4] = during NGES, L-NAME 50 mg/kg, atropine 0.05 mg/kg in presence of L-NAME, mean (SD)

| Structure (SMILES) | Effect on (baseline) lower esophageal sphincter pressure [1] | Effect on initial rise in lower esophageal sphincter pressure induced by NGES [1] | Effect on (baseline) lower esophageal sphincter pressure [2] | Effect on initial rise in lower esophageal sphincter pressure induced by NGES [2] | Initial Peak (% change) [3] | Relaxation (% change) [3] | Lower Esophageal Sphincter Pressure Baseline (anesthetized female mongrel dogs, L-NAME infusion 50 mg/kg, atropine 0.05 mg/kg in the presence of L-NAME, mean (SD)) | Peak Duration [4] | Relaxation Duration [4] | Effect on lower esophageal sphincter relaxation phase following NGES (in words, anesthetized dogs, L-NAME 50 mg/kg) |
| --- | --- | --- | --- | --- | --- | --- | --- | --- | --- | --- |
| CN1[C@@H]2CC[C@H]1C[C@@H](OC(=O)C(CO)c1ccccc1)C2 (stereo partly drawn) [Atropine, atropine] | lowered | abolished | reduced | reduced | – | – | – | – | – | – |
| COC(=O)[C@@H](N)CCCNC(=N)N[N+](=O)[O-] [L-NAME] | increased | augmented; also recorded: enhanced | – | – | 76 (48.6) % change | 28.2 (34.1)** % change | 35.7 (5.1)* mmHg | 6.7 (3.9) sec | 4.4 (3.8) sec | markedly diminished or abolished; also recorded: markedly suppressed |
